Where two headings read alike, the source gives them in different places.
Experiments:
[1] = tested on: a range of cancer cell lines; design: method as in as in column Ref. of Table 1 ([5]-[8],[14],[19]-[21]); conditions: ref as in Table 1 ([5]-[8],[14],[19]-[21]), read-out: Reported Cell Proliferation IC50; cited from earlier work
PLK1 = conditions: ref as in Table 1 ([5],[6],[8],[14],[19],[20],[21]); read-out: Reported Enzyme Inhibition IC50 PLK1; cited from earlier work
human PLK2 (NLuc-PLK2) = target: T1, human PLK2 (NLuc-PLK2) (Homo sapiens, UniProt Q9NYY3); assay: PLK2 NanoBRET target engagement assay (NLuc-PLK2) in live HEK293 cells; assay type: cell-based; conditions: HEK293, probe 11 1.0 µM, 2 h; average of two technical replicates ±15%
T1 construct: ORFs corresponding to UniProt isoform 1 (PLK1: P53350-1, PLK2: Q9NYY3-1, and PLK3: Q9H4B4-1); host or cells: HEK293
Description: (§1) HEK293 cells (ATCC) were cultured in DMEM (Gibco) + 10% FBS (Seradigm) with incubation in a humidified 37 °C/5% CO2 incubator. N- or C-terminal NLuc/PLK fusions were encoded in pFN31K expression vectors (Promega), including flexible Gly-Ser-Ser-Gly linkers between NLuc and ORFs corresponding to UniProt isoform 1 (PLK1: P53350-1, PLK2: Q9NYY3-1, and PLK3: Q9H4B4-1). Carrier DNA was encoded in pGEM-3Z vectors (Promega). For cellular BRET target engagement experiments, HEK293 cells were transfected with NLuc/PLK fusion constructs using FuGENE HD (Promega) according to the manufacturer’s protocol. Briefly, NLuc/PLK fusion constructs were diluted into Transfection Carrier DNA (Promega) at a mass ratio of 1:9 (mass/mass), after which FuGENE HD was added at a ratio of 1:3 (µg DNA: µL FuGENE HD). One part (vol) of FuGENE HD complexes thus formed was combined with 20 parts (vol) of HEK293 cells suspended at a density of 2 × 10^5 per mL, followed by incubation in a humidified 37 °C/5% CO2 incubator for 20 hr.
(§2) To test BRET probes 10 and 11 against PLK1, HEK293 adherent cells were incubated with either NLuc fused to the N-terminus of PLK1 (NLuc-PLK1) or the C-terminus of PLK1 (PLK1-NLuc) using 1 µM of the BRET probe, and mBRET units were measured. […] NLuc-PLK2 and NLuc-PLK3 were tested with both probes 10 and 11 using the same protocol.

human PLK3 (NLuc-PLK3) = target: T2, human PLK3 (NLuc-PLK3) (Homo sapiens, UniProt Q9H4B4); assay: PLK3 NanoBRET target engagement assay (NLuc-PLK3) in live HEK293 cells; assay type: cell-based; conditions: HEK293, probe 11 1.0 µM, 2 h; average of two technical replicates ±15%
T2 construct: ORFs corresponding to UniProt isoform 1 (PLK1: P53350-1, PLK2: Q9NYY3-1, and PLK3: Q9H4B4-1); host or cells: HEK293
Description: as §1, §2

human PLK1 (NLuc-PLK1) = target: T3, human PLK1 (NLuc-PLK1) (Homo sapiens, UniProt P53350); assay: PLK1 NanoBRET target engagement assay (NLuc-PLK1, N-terminal fusion) in live HEK293 cells; assay type: cell-based
T3 construct: plasmid DNAs encoding N- and C-terminal fusions of full-length PLK1 with NLuc; host or cells: HEK293
Description: as §1, with “Briefly, NLuc/PLK fusion constructs were diluted into Transfection Carrier DNA (Promega) at a mass ratio of 1:9 (mass/mass), after which FuGENE HD was added at a ratio of 1:3 (µg DNA: µL FuGENE HD).” left out
as §2
To estimate the half-maximal effective concentration (EC50) of probe 11 to PLK1 in cells, adherent HEK293 cells in a 96-well plate expressing the NLuc-PLK1 fusion protein were mixed with an increasing concentration of BRET probe 11. The resulting BRET ratio was fitted to the sigmoidal 4-parameter dose–response curve using Prism 9.0 (GraphPad, Boston MA, USA).

PLK1 (PLK1-NLuc) = target: T4, PLK1 (PLK1-NLuc) (Homo sapiens, UniProt P53350); assay: BRET probe evaluation with NLuc fused to the C-terminus of PLK1 (PLK1-NLuc) in HEK293 cells; assay type: cell-based; conditions: 1 µM probe, PLK1-NLuc (C-terminal fusion), adherent HEK293 cells
T4 construct: plasmid DNAs encoding N- and C-terminal fusions of full-length PLK1 with NLuc; host or cells: HEK293
Description: as §1
To test BRET probes 10 and 11 against PLK1, HEK293 adherent cells were incubated with either NLuc fused to the N-terminus of PLK1 (NLuc-PLK1) or the C-terminus of PLK1 (PLK1-NLuc) using 1 µM of the BRET probe, and mBRET units were measured. The combination with the highest mBRET units was selected for further processing. […]

T3 sequence (P53350 whole entry, the tested form may be a part): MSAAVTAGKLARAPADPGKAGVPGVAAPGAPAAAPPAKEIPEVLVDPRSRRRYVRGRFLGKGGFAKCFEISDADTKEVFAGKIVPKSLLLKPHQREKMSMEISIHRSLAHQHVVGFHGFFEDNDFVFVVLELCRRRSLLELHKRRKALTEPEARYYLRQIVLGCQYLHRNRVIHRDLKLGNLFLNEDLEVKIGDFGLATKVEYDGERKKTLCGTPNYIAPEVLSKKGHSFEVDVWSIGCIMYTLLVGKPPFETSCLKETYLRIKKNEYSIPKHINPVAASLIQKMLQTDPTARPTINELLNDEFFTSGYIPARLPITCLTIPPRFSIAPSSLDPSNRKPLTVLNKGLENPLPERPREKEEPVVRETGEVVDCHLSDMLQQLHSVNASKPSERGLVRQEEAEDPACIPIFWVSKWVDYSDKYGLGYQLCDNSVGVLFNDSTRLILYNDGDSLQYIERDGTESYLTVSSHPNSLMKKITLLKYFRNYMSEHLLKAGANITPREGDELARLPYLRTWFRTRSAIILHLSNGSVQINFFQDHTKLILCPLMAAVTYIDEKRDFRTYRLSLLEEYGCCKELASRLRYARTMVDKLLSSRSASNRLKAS
T2 sequence (Q9H4B4 whole entry, canonical isoform): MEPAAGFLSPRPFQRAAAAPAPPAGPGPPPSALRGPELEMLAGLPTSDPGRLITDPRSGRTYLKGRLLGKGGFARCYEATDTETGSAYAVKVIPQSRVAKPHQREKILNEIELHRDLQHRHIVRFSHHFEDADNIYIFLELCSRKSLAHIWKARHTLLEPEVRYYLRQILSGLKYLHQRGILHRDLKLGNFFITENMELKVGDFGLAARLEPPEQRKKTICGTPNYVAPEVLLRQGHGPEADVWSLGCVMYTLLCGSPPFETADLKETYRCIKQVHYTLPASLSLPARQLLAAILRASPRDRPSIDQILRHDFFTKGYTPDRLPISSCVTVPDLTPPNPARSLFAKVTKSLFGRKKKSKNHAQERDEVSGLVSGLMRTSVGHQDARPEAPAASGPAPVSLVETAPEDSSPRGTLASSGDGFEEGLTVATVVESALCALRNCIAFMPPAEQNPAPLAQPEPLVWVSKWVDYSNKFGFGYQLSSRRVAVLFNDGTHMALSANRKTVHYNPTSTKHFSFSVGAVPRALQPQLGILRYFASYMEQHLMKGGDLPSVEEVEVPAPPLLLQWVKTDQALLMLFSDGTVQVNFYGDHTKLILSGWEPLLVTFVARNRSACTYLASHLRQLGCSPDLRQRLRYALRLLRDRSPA
T1 sequence (Q9NYY3 whole entry, canonical isoform): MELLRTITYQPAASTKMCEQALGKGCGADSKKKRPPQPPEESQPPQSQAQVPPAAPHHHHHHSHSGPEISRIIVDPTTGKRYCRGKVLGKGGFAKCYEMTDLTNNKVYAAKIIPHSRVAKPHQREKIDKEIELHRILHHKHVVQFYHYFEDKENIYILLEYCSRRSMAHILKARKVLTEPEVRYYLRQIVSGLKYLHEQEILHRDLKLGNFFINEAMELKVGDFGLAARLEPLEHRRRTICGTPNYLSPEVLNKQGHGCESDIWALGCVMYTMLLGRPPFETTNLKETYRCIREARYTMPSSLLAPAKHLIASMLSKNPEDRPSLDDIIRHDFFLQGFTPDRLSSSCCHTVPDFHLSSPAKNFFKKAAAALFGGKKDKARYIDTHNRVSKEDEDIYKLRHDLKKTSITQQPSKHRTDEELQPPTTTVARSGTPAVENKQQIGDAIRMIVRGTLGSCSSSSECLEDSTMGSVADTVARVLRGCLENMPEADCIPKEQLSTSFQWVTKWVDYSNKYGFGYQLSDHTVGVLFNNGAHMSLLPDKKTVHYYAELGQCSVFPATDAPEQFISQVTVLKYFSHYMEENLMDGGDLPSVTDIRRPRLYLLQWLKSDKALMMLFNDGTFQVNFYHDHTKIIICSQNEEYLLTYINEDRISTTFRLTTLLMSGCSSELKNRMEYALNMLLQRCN
T4 sequence (P53350 whole entry, the tested form may be a part): as the sequence (P53350 whole entry, the tested form may be a part) above

Row | Structure (SMILES) | IC50 [1] [nM] | IC50 (PLK1) [nM] | IC50 (human PLK2 (NLuc-PLK2)) [nM] | IC50 (human PLK3 (NLuc-PLK3)) [nM] | also measured
1 | C[C@@H](Oc1cc(-n2cnc3ccc(CN4CCN(C)CC4)cc32)sc1C(N)=O)c1ccccc1C(F)(F)F [GSK461364] | 10 to 100 |  |  |  | 
2 | Cc1ncc(CCCN(C)C)cc1Nc1ncc2c(n1)-c1ccc(C(F)(F)F)cc1NC(=S)C2 [MLN0905] |  | 2 |  |  | 
3 | CN1CCN(c2ccc(OC(F)(F)F)c(Nc3ncc4c(n3)-c3c(c(C(N)=O)nn3CCO)CC4)c2)CC1 [Onvansertib] | 42 | […] |  |  | 
4 | COc1cc(C(=O)NC2CCN(C)CC2)ccc1Nc1ncc2c(n1)N(C1CCCC1)CC(F)(F)C(=O)N2C [Ro3280] | 6 to 45 |  | 45 | 180 | 
5 | CCC1(F)CN(C2CCCC2)c2nc(Nc3ccc(C(=O)NC4CCN(C)CC4)cc3OC)ncc2N(C)C1=O (stereo not drawn) [TPKI-26] | 5 |  | 64 | 1700 | 
6 | CC[C@@H]1C(=O)N(C)c2cnc(Nc3ccc(C(=O)N[C@H]4CC[C@H](N5CCN(CC6CC6)CC5)CC4)cc3OC)nc2N1C(C)C [Volasertib] | 11 to 37 | 0.87 | 23 | 59 | IC50 (human PLK1 (NLuc-PLK1); HEK293, probe 11 0.2 µM, 2 h, average of two technical replicates ±15%, read-out: NanoBRET Target Engagement IC50 PLK1): 18 nM
7 | CC[C@@H]1C(=O)N(C)c2cnc(Nc3ccc(C(=O)NC4CCNCC4)cc3OC)nc2N1C(C)C [compound 1, (R)-4-((7-ethyl-8-isopropyl-5-methyl-6-oxo-5,6,7,8-tetrahydropteridin-2-yl)amino)-3-methoxy-N-(piperidin-4-yl)benzamide] |  |  |  |  | IC50 (human PLK1 (NLuc-PLK1); Probe 11 Conc. 0.1 μM, NLuc-PLK1, ADH format, read-out: apparent IC50): 203 nM; IC50 (human PLK1 (NLuc-PLK1); Probe 11 Conc. 0.2 μM, NLuc-PLK1, ADH format, read-out: apparent IC50): 228 nM; IC50 (human PLK1 (NLuc-PLK1); Probe 11 Conc. 0.4 μM, NLuc-PLK1, ADH format, read-out: apparent IC50): 246 nM; IC50 (human PLK1 (NLuc-PLK1); Probe 11 Conc. 0.6 μM, NLuc-PLK1, ADH format, read-out: apparent IC50): 285 nM; IC50 (human PLK1 (NLuc-PLK1); Probe 11 Conc. 0.8 μM, NLuc-PLK1, ADH format, read-out: apparent IC50): 291 nM; IC50 (human PLK1 (NLuc-PLK1); Probe 11 Conc. 1 μM, NLuc-PLK1, ADH format, read-out: apparent IC50): 316 nM; Kd (human PLK1 (NLuc-PLK1); linearized Cheng–Prusoff analysis, y-intercept of IC50 vs probe 11 concentration, live HEK293 cells, read-out: apparent KD for intracellular target engagement of PLK1): 120 nM
8 | CC[C@@H]1C(=O)N(C)c2cnc(Nc3ccc(C(=O)NC4CCN(C(=O)CCc5ccc6n5[B-](F)(F)[N+]5=C(c7ccc[nH]7)C=CC5=C6)CC4)cc3OC)nc2N1C(C)C [probe 10, (R)-N-(1-(3-(5,5-difluoro-7-(1H-pyrrol-2-yl)-5H-5^λ,6^λ-dipyrrolo[1,2-c:2’,1’-f][1-3]diazaborinin-3-yl)propanoyl)piperidin-4-yl)-4-((7-ethyl-8-isopropyl-5-methyl-6-oxo-5,6,7,8-tetrahydropteridin-2-yl)amino)-3-methoxybenzamide] |  |  |  |  | BRET ratio (human PLK1 (NLuc-PLK1); 1 µM probe, NLuc-PLK1, adherent HEK293 cells): ~ 39; BRET ratio (PLK1 (PLK1-NLuc)): ~ 15
